Measurements reported in US12180252B2, “Peptide derived from PEP27 peptide and uses thereof” (priority 2021, dated 2024).
Converted amounts (≈) assume the structure as drawn. Like-named read-outs stand apart in the source and are kept apart here. One block for each compound: values may come before it. Where a SMILES comes first, the peptide text is derived from it.

Key:
P. aeruginosa 4007 = assay: microbe, parasite or virus in culture; details: for MIC: Pseudomonas aeruginosa, 4007, 18 h, read-out: Minimal inhibitory concentration
Description: (§1) In order to evaluate the antimicrobial activity of the peptides prepared by the method of above 1, a minimal inhibitory concentration (MIC) value as the minimum concentration of a peptide, in which cells are not divided, was measured.
(§2) Specifically, the strains shown in Table 3 below were purchased, cultured in a medium having a constitutional composition suitable for each strain to a mid-log phase, and then diluted to a concentration of 2×10^4 cells/100 μl to prepare the product on a micro-titration plate (Nunc, USA). Then, PEP27, PEP27-1, PEP27-2 or PEP27-5 peptide synthesized in the above 1 was added to each well by serial dilution ½ times, followed by incubation at 37° C. for 18 hours.
(§3) Specifically, subject strains were prepared by the method of above 2, and were treated with the antibiotics, that is, meropenem, ceftazidime, ceftriaxone or vancomycin, respectively, followed by determining MICs of the antibiotics.

P. aeruginosa 4891 = assay: microbe, parasite or virus in culture; details: for MIC: Pseudomonas aeruginosa, 4891, 18 h, read-out: Minimal inhibitory concentration
Description: as §1, §2, §3

P. aeruginosa ATCC15692 = assay: microbe, parasite or virus in culture; details: ATCC15692, 18 h; for MIC: Pseudomonas aeruginosa, read-out: Minimal inhibitory concentration
Description: as §1, §2, §3

P. aeruginosa ATCC27853 = assay: microbe, parasite or virus in culture; details: ATCC27853, 18 h; for MIC: Pseudomonas aeruginosa, read-out: Minimal inhibitory concentration
Description: as §1, §2, §3

S. aureus ATCC25923 = assay: microbe, parasite or virus in culture; details: ATCC25923, 18 h; for MIC: Staphylococcus aureus, read-out: Minimal inhibitory concentration
Description: as §1, §2, §3

S. aureus ATCC29213 = assay: microbe, parasite or virus in culture; details: ATCC29213, 18 h; for MIC: Staphylococcus aureus, read-out: Minimal inhibitory concentration
Description: as §1, §2, §3

S. aureus CCARM3089 = assay: microbe, parasite or virus in culture; details: for MIC: Staphylococcus aureus, CCARM3089, 18 h, read-out: Minimal inhibitory concentration
Description: as §1, §2, §3

S. aureus CCARM3090 = assay: microbe, parasite or virus in culture; details: for MIC: Staphylococcus aureus, CCARM3090, 18 h, read-out: Minimal inhibitory concentration
Description: as §1, §2, §3

S. aureus CCARM3518 = assay: microbe, parasite or virus in culture; details: for MIC: Staphylococcus aureus, CCARM3518, 18 h, read-out: Minimal inhibitory concentration
Description: as §1, §2, §3

S. aureus MW2 = assay: microbe, parasite or virus in culture; details: for MIC: Staphylococcus aureus, MW2, 18 h, read-out: Minimal inhibitory concentration
Description: as §1, §2, §3

S. aureus USA300 = assay: microbe, parasite or virus in culture; details: for MIC: Staphylococcus aureus, USA300, 18 h, read-out: Minimal inhibitory concentration
Description: as §1, §2, §3

B. subtilis KCTC1998 = format: cell-based, Bacillus subtilis; details: KCTC1998, 18 h
Description: as §1, §2

L. monocytogens KCTC3710 = format: cell-based, Listeria monocytogenes; details: KCTC3710, 18 h
Description: as §1, §2

E. coli ATCC25922 = format: cell-based, Escherichia coli; details: ATCC25922, 18 h
Description: as §1, §2

E. coli ATCC27325 = format: cell-based, Escherichia coli; details: ATCC27325, 18 h
Description: as §1, §2

E. coli CCARM1229 = format: cell-based, Escherichia coli; details: E. coli CCARM1229, antibiotics-tolerant; 37° C., 18 hours
Description: as §1, §2

E. coli CCARM1238 = format: cell-based, Escherichia coli; details: E. coli CCARM1238, antibiotics-tolerant; 37° C., 18 hours
Description: as §1, §2

[1] = test system: Sa. typhimurium CCARM8007; format: cell-based, Salmonella typhimurium; details: Sa. typhimurium CCARM8007, antibiotics-tolerant; 37° C., 18 hours
Description: as §1, §2

[2] = test system: Sa. typhimurium CCARM8009; format: cell-based, Salmonella typhimurium; details: Sa. typhimurium CCARM8009, antibiotics-tolerant; 37° C., 18 hours
Description: as §1, §2

Sa. typhimurium KCTC1926 = format: cell-based, Salmonella typhimurium; details: KCTC1926, 18 h
Description: as §1, §2

[3] = test system: red blood cells of a rat (Balb/c); details: 37° C., 1 hour
Description: In order to compare the cytotoxicity of the peptides prepared by the method of above 1, erythrocyte hemolytic activity of each of the synthesized peptides was measured.
Specifically, red blood cells of a rat (Balb/c, 6 weeks old, female) were diluted with PBS (pH 7.0) to a concentration of 8%, and PEP27, PEP27-1, PEP27-2 and PEP27-5 peptides were used for treatment of the cells at concentrations of 3.13, 6.25, 12.5, 25.01 50.0 and 100.0 μM/well, respectively, followed by reaction at 37° C. for 1 hour. Then, an amount of hemoglobin contained in the supernatant obtained by centrifugation at 1,000×g was determined by measuring the absorbance at a wavelength of 414 nm. As a control which is a standard for the degree of cell destruction, the absorbance of the obtained supernatant was measured after treatment using 1% Triton X-100 (Sigma, USA) and reaction at 37° C. for 1 hour. With reference to 100% erythrocytes hemolysis activity, hemolysis of each peptide was calculated from the measured absorbance using Equation 1 below. Erythrocyte destruction ability (%)=(Absorbance A−Absorbance B)/(Absorbance C−Absorbance B)×100 [Equation 1]
(wherein, absorbance A represents the absorbance of a reaction solution treated with each peptide measured at a wavelength of 414 nm; absorbance B represents the absorbance of a reaction solution treated with PBS measured at a wavelength of 414 nm; and absorbance C represents the absorbance of a reaction solution treated with 1% Triton X-100 measured at a wavelength of 414 nm).

HaCaT and MCF-7 cells = assay: MTT cytotoxicity; format: cell-based, human; details: 100 μM, 24 h, MTT, HaCaT and MCF-7 cells
Description: Specifically, Thiazolyl blue tetrazolium bromide (MTT, Merck KGaA) was used to determine the cytotoxicity of PEP27 and its analogs against HaCaT (human keratinocyte […], n=4 per condition) and MCF-7 (human breast adenocarcinoma, n=3 per condition) cells. The cells were cultured in Dulbecco's modified Eagle's medium (DMEM) supplemented with 10 heat-inactivated fetal bovine serum (FBS, Gibco, Grand Island, NY, USA) and 1% penicillin-streptomycin (Gibco) at a density of 2×10^4 cells/well (96-well plate). Peptides were then added at various concentrations and incubated for 24 h at 37° C., after which MTT (final concentration, 0.5 mg/mL) was added to each well and incubated for 4 h. The formazan product was solubilized in DMSO, and the absorbance at 570 nm was measured to […] cytotoxicity. Cells treated with 0.1% Triton X-100 were used as the 100% cytotoxic control sample.

MIC (P. aeruginosa 4007): 4 µM (≈ 1.53 µg/mL)
MIC (P. aeruginosa 4891): 8 µM (≈ 3.07 µg/mL)
MIC (P. aeruginosa ATCC15692): 2 µM (≈ 0.767 µg/mL)
MIC (P. aeruginosa ATCC27853): 2 µM (≈ 0.767 µg/mL)
MIC (S. aureus ATCC25923): 2 µM (≈ 0.767 µg/mL)
MIC (S. aureus ATCC29213): 2 µM (≈ 0.767 µg/mL)
MIC (S. aureus CCARM3089): 64 µM (≈ 24.5 µg/mL)
MIC (S. aureus CCARM3090): 128 µM (≈ 49.1 µg/mL)
MIC (S. aureus CCARM3518): 64 µM (≈ 24.5 µg/mL)
MIC (S. aureus MW2): 2 µM (≈ 0.767 µg/mL)
MIC (S. aureus USA300): 2 µM (≈ 0.767 µg/mL)
Structure (SMILES): C[C@@H](O)[C@H]1C(=O)N2C(C(=O)O)=C(S[C@@H]3CN[C@H](C(=O)N(C)C)C3)[C@H](C)[C@H]12 [Meropenem, meropenem]

Structure (SMILES): CN[C@H](CC(C)C)C(=O)N[C@H]1C(=O)N[C@@H](CC(N)=O)C(=O)N[C@H]2C(=O)N[C@H]3C(=O)N[C@H](C(=O)N[C@H](C(=O)O)c4cc(O)cc(O)c4-c4cc3ccc4O)[C@H](O)c3ccc(c(Cl)c3)Oc3cc2cc(c3O[C@@H]2O[C@H](CO)[C@@H](O)[C@H](O)[C@H]2O[C@H]2C[C@](C)(N)[C@H](O)[C@H](C)O2)Oc2ccc(cc2Cl)[C@H]1O [Vancomycin, vancomycin]
MIC (P. aeruginosa 4007): 512 µM (≈ 742 µg/mL)
MIC (P. aeruginosa 4891): 512 µM (≈ 742 µg/mL)
MIC (P. aeruginosa ATCC15692): 512 µM (≈ 742 µg/mL)
MIC (P. aeruginosa ATCC27853): 256 µM (≈ 371 µg/mL)
MIC (S. aureus ATCC25923): 0.25 µM (≈ 0.362 µg/mL)
MIC (S. aureus ATCC29213): 0.25 µM (≈ 0.362 µg/mL)
MIC (S. aureus CCARM3089): 0.25 µM (≈ 0.362 µg/mL)
MIC (S. aureus CCARM3090): 0.5 µM (≈ 0.725 µg/mL)
MIC (S. aureus CCARM3518): 0.25 µM (≈ 0.362 µg/mL)
MIC (S. aureus MW2): 0.25 µM (≈ 0.362 µg/mL)
MIC (S. aureus USA300): 0.25 µM (≈ 0.362 µg/mL)

Structure (SMILES): CSCC[C@H](N)C(=O)N[C@@H](Cc1c[nH]c2ccccc12)C(=O)N[C@@H](CCCCN)C(=O)N[C@@H](Cc1c[nH]c2ccccc12)C(=O)N[C@@H](Cc1ccccc1)C(=O)N[C@@H](Cc1c[nH]cn1)C(=O)N[C@@H](CC(N)=O)C(=O)N[C@H](C(=O)N[C@@H](CC(C)C)C(=O)N[C@@H](CO)C(=O)N[C@@H](CO)C(=O)NCC(=O)N[C@@H](CCC(N)=O)C(=O)N[C@@H](CC(C)C)C(=O)N[C@@H](CC(C)C)C(=O)N[C@@H](C)C(=O)N[C@@H](CC(=O)O)C(=O)N[C@@H](CCCCN)C(=O)N[C@@H](CCCNC(=N)N)C(=O)N1CCC[C@H]1C(=O)N[C@@H](C)C(=O)N[C@@H](CCCNC(=N)N)C(=O)N[C@@H](CC(=O)O)C(=O)N[C@@H](Cc1ccc(O)cc1)C(=O)N[C@@H](CC(N)=O)C(=O)N[C@@H](CCCNC(=N)N)C(=O)N[C@@H](CCCCN)C(N)=O)C(C)C [PEP27-1] (H-MWKWFHNVLSSGQLLADKRPARDYNRK-NH2)
Minimal inhibitory concentration (B. subtilis KCTC1998): 32 µM (≈ 106 µg/mL)
Minimal inhibitory concentration (L. monocytogens KCTC3710): 64 µM (≈ 212 µg/mL)
Minimal inhibitory concentration (E. coli ATCC25922): 64 µM (≈ 212 µg/mL)
Minimal inhibitory concentration (E. coli ATCC27325): 32 µM (≈ 106 µg/mL)
Minimal inhibitory concentration (E. coli CCARM1229): 32 µM (≈ 106 µg/mL)
Minimal inhibitory concentration (E. coli CCARM1238): 32 µM (≈ 106 µg/mL)
Minimal inhibitory concentration (P. aeruginosa 4007; 4007, 18 h): 32 µM (≈ 106 µg/mL)
Minimal inhibitory concentration (P. aeruginosa 4891; 4891, 18 h): 32 µM (≈ 106 µg/mL)
Minimal inhibitory concentration (P. aeruginosa ATCC15692): 32 µM (≈ 106 µg/mL)
Minimal inhibitory concentration (P. aeruginosa ATCC27853): 32 µM (≈ 106 µg/mL)
Minimal inhibitory concentration (S. aureus ATCC25923): 32 µM (≈ 106 µg/mL)
Minimal inhibitory concentration (S. aureus ATCC29213): 32 µM (≈ 106 µg/mL)
Minimal inhibitory concentration (S. aureus CCARM3089; S. aureus CCARM3089, antibiotics-tolerant, 37° C., 18 hours): 32 µM (≈ 106 µg/mL)
Minimal inhibitory concentration (S. aureus CCARM3090; S. aureus CCARM3090, antibiotics-tolerant, 37° C., 18 hours): 16 µM (≈ 53.1 µg/mL)
Minimal inhibitory concentration (S. aureus CCARM3518; S. aureus CCARM3518, antibiotics-tolerant, 37° C., 18 hours): 32 µM (≈ 106 µg/mL)
Minimal inhibitory concentration (S. aureus MW2; S. aureus MW2, antibiotics-tolerant, 37° C., 18 hours): 32 µM (≈ 106 µg/mL)
Minimal inhibitory concentration (S. aureus USA300; S. aureus USA300, antibiotics-tolerant, 37° C., 18 hours): 32 µM (≈ 106 µg/mL)
Minimal inhibitory concentration [1]: 32 µM (≈ 106 µg/mL)
Minimal inhibitory concentration [2]: 32 µM (≈ 106 µg/mL)
Minimal inhibitory concentration (Sa. typhimurium KCTC1926): 32 µM (≈ 106 µg/mL)
Erythrocyte destruction ability ([3]; Peptide concentration 3.13 μM): 0%
Erythrocyte destruction ability ([3]; Peptide concentration 6.25 μM): 1.05%
Erythrocyte destruction ability ([3]; Peptide concentration 12.5 μM): 1.97%
Erythrocyte destruction ability ([3]; Peptide concentration 25 μM): 25.75%
Erythrocyte destruction ability ([3]; Peptide concentration 50 μM): 44.51%
Erythrocyte destruction ability ([3]; Peptide concentration 100 μM, 100% = 1% Triton X-100): 50.65%
cell viability (HaCaT and MCF-7 cells): 41%-42%

MIC (P. aeruginosa 4007): 16 µM (≈ 8.75 µg/mL)
MIC (P. aeruginosa 4891): 16 µM (≈ 8.75 µg/mL)
MIC (P. aeruginosa ATCC15692): 4 µM (≈ 2.19 µg/mL)
MIC (P. aeruginosa ATCC27853): 2 µM (≈ 1.09 µg/mL)
MIC (S. aureus ATCC25923): 16 µM (≈ 8.75 µg/mL)
MIC (S. aureus ATCC29213): 3 µM (≈ 1.64 µg/mL)
MIC (S. aureus CCARM3089): 512 µM (≈ 280 µg/mL)
MIC (S. aureus CCARM3090): 512 µM (≈ 280 µg/mL)
MIC (S. aureus CCARM3518): 64 µM (≈ 35 µg/mL)
MIC (S. aureus MW2): 32 µM (≈ 17.5 µg/mL)
MIC (S. aureus USA300): 32 µM (≈ 17.5 µg/mL)
Structure (SMILES): CC(C)(O/N=C(\C(=O)N[C@@H]1C(=O)N2C(C(=O)[O-])=C(C[n+]3ccccc3)CS[C@H]12)c1csc(N)n1)C(=O)O [Ceftazidime, ceftazidime]
